Data published in the supplement of paper PMC11208160.

assay: recombinant UMI read abundance after kanamycin selection (control-corrected) (log10(CPM+1)); higher = more efficient recombination; extreme values may be limits of the assay; sequences stand for … in AGTGCAGAGAAAATCGGCCAGTTTTCTCTGCCTGCAGTCCGCATGCCGTGGGACCCCTTGGGTTCTAACCTGTTGCCTAGATTTATGCAGCGGACTGCCTTTCTCCCAAAGTGATAAACCGG…AGGTTGGTTTCACT; site = the 11-nt donor
How it was run: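 Pooled Escherichia coli screen of donor and donor-binding-loop pairs for the IS621 bridge recombinase. Each pair sits with a 12-nt UMI on a plasmid carrying a promoterless kanamycin gene. The library was co-electroporated with a target plasmid encoding a fixed target and T7-inducible recombinase, then plated with IPTG (0.07 mM) plus kanamycin, or unselected, each in two replicates. Recombinant UMIs were PCR-amplified across the donor–target junction and sequenced. Counts became CPM, averaged over replicates, scaled by control-derived factors and reported as log10(CPM+1).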

Row | Sequence | recombinant UMI read abundance (log10)
1 | CAAGGAGCATGGACCGGTTTTCCCGGTAATCCGTATTTGCT (site CAAGCAGCTAG) | 2.16
2 | CAAGGAGCATGGACCGGTTTTCCCGGTAATCCGTATTTGCT (site CAAGGAGCTAG) | 2.76
3 | CAAGGAGCATGGACCGGTTTTCCCGGTAATCCGTATTTGCT (site CAAGTAGCTAG) | 2.2
4 | CAAGGCCCATGGACCGGTTTTCCCGGTAATCCGTATTTGTC (site CAAGGCCCTGA) | 2.07
5 | CAAGGCTCATGGACCGGTTTTCCCGGTAATCCGTATTTGAA (site CAAAGCTCTTT) | 2.15
6 | CAAGGCTCATGGACCGGTTTTCCCGGTAATCCGTATTTGAA (site CAACGCTCTTT) | 0.00296
7 | CAAGGCTCATGGACCGGTTTTCCCGGTAATCCGTATTTGAA (site CAAGGCTCTTT) | 2.71
8 | CAAGGCTCATGGACCGGTTTTCCCGGTAATCCGTATTTGAA (site CAATGCTCTTT) | 0.368
9 | CAAGTATCATGGACCGGTTTTCCCGGTAATCCGTATTTGAC (site CAAGTATCTGT) | 2.94
10 | CAAGTATCATGGACCGGTTTTCCCGGTAATCCGTATTTGAC (site CCAGTATCTGT) | 0.955
11 | CAAGTATCATGGACCGGTTTTCCCGGTAATCCGTATTTGAC (site CGAGTATCTGT) | 2.2
12 | CAAGTATCATGGACCGGTTTTCCCGGTAATCCGTATTTGAC (site CTAGTATCTGT) | 2.04
13 | CAAGTCACATGGACCGGTTTTCCCGGTAATCCGTATTTGGT (site CAAGTCACTAC) | 1.84
14 | CAAGTCACATGGACCGGTTTTCCCGGTAATCCGTATTTGGT (site CAAGTCACTCC) | 0.00397
15 | CAAGTCACATGGACCGGTTTTCCCGGTAATCCGTATTTGGT (site CAAGTCACTGC) | 2.43
16 | CAAGTCACATGGACCGGTTTTCCCGGTAATCCGTATTTGGT (site CAAGTCACTTC) | 0.155
17 | CAAGTCACATGGACCGGTTTTCCCGGTAATCCGTATTTGTT (site CAAGTCACTAA) | 2.2
18 | CAATACACATGGACCGGTTTTCCCGGTAATCCGTATTTGCA (site CAATACACTTG) | 2.2
19 | CAATACCCATGGACCGGTTTTCCCGGTAATCCGTATTTGCT (site CAATACCCTAG) | 1.93
20 | CAATACCCATGGACCGGTTTTCCCGGTAATCCGTATTTGCT (site CAATCCCCTAG) | 1.55
21 | CAATACCCATGGACCGGTTTTCCCGGTAATCCGTATTTGCT (site CAATGCCCTAG) | 0.00435
22 | CAATACCCATGGACCGGTTTTCCCGGTAATCCGTATTTGCT (site CAATTCCCTAG) | 0
23 | CAATAGCCATGGACCGGTTTTCCCGGTAATCCGTATTTGCC (site CAATAGCCTGG) | 0.755

Row | Sequence | recombinant UMI read abundance (log10)
24 | CAATATCCATGGACCGGTTTTCCCGGTAATCCGTATTTGTT (site CAATATCCTAA) | 1.7
25 | CAATCAGCATGGACCGGTTTTCCCGGTAATCCGTATTTGCT (site CAAACAGCTAG) | 0
26 | CAATCAGCATGGACCGGTTTTCCCGGTAATCCGTATTTGCT (site CAACCAGCTAG) | 0.798
27 | CAATCAGCATGGACCGGTTTTCCCGGTAATCCGTATTTGCT (site CAAGCAGCTAG) | 0.0241
28 | CAATCAGCATGGACCGGTTTTCCCGGTAATCCGTATTTGCT (site CAATCAGCTAG) | 0.199
29 | CAATCCTCATGGACCGGTTTTCCCGGTAATCCGTATTTGAA (site CAATACTCTTT) | 1.33
30 | CAATCCTCATGGACCGGTTTTCCCGGTAATCCGTATTTGAA (site CAATCCTCTTT) | 1.98
31 | CAATCCTCATGGACCGGTTTTCCCGGTAATCCGTATTTGAA (site CAATGCTCTTT) | 0.00935
32 | CAATCCTCATGGACCGGTTTTCCCGGTAATCCGTATTTGAA (site CAATTCTCTTT) | 0
33 | CAATGAGCATGGACCGGTTTTCCCGGTAATCCGTATTTGGG (site AAATGAGCTCC) | 0.0303
34 | CAATGAGCATGGACCGGTTTTCCCGGTAATCCGTATTTGGG (site CAATGAGCTCC) | 0.779
35 | CAATGAGCATGGACCGGTTTTCCCGGTAATCCGTATTTGGG (site GAATGAGCTCC) | 0.00334
36 | CAATGAGCATGGACCGGTTTTCCCGGTAATCCGTATTTGGG (site TAATGAGCTCC) | 0.0682
37 | CAATGCCCATGGACCGGTTTTCCCGGTAATCCGTATTTGCT (site CAATACCCTAG) | 1.74
38 | CAATGCCCATGGACCGGTTTTCCCGGTAATCCGTATTTGCT (site CAATCCCCTAG) | 0.246
39 | CAATGCCCATGGACCGGTTTTCCCGGTAATCCGTATTTGCT (site CAATGCCCTAG) | 1.34
40 | CAATGCCCATGGACCGGTTTTCCCGGTAATCCGTATTTGCT (site CAATTCCCTAG) | 0
41 | CAATGCGCATGGACCGGTTTTCCCGGTAATCCGTATTTGAA (site CAATGCACTTT) | 1.15
42 | CAATGCGCATGGACCGGTTTTCCCGGTAATCCGTATTTGAA (site CAATGCCCTTT) | 0.0173
43 | CAATGCGCATGGACCGGTTTTCCCGGTAATCCGTATTTGAA (site CAATGCGCTTT) | 1.9
44 | CAATGCGCATGGACCGGTTTTCCCGGTAATCCGTATTTGAA (site CAATGCTCTTT) | 0.823
45 | CAATGCTCATGGACCGGTTTTCCCGGTAATCCGTATTTGAC (site CAATGCTCTAT) | 0.737
46 | CAATGCTCATGGACCGGTTTTCCCGGTAATCCGTATTTGAC (site CAATGCTCTCT) | 0.051

Row | Sequence | recombinant UMI read abundance (log10)
47 | CAATGCTCATGGACCGGTTTTCCCGGTAATCCGTATTTGAC (site CAATGCTCTGT) | 3.03
48 | CAATGCTCATGGACCGGTTTTCCCGGTAATCCGTATTTGAC (site CAATGCTCTTT) | 1.28
49 | CAATGCTCATGGACCGGTTTTCCCGGTAATCCGTATTTGAT (site CAATGCTCTAT) | 2.87
50 | CAATGCTCATGGACCGGTTTTCCCGGTAATCCGTATTTGAT (site CAATGCTCTCT) | 0.607
51 | CAATGCTCATGGACCGGTTTTCCCGGTAATCCGTATTTGAT (site CAATGCTCTGT) | 1.36
52 | CAATGCTCATGGACCGGTTTTCCCGGTAATCCGTATTTGAT (site CAATGCTCTTT) | 0.993
53 | CAATTAACATGGACCGGTTTTCCCGGTAATCCGTATTTGTT (site CAATTAACTAA) | 0.00834
54 | CAATTCCCATGGACCGGTTTTCCCGGTAATCCGTATTTGCT (site AAATTCCCTAG) | 0
55 | CAATTCCCATGGACCGGTTTTCCCGGTAATCCGTATTTGCT (site CAAATCCCTAG) | 0.763
56 | CAATTCCCATGGACCGGTTTTCCCGGTAATCCGTATTTGCT (site CAACTCCCTAG) | 1.16
57 | CAATTCCCATGGACCGGTTTTCCCGGTAATCCGTATTTGCT (site CAAGTCCCTAG) | 1.05
58 | CAATTCCCATGGACCGGTTTTCCCGGTAATCCGTATTTGCT (site CAATACCCTAG) | 0.712
59 | CAATTCCCATGGACCGGTTTTCCCGGTAATCCGTATTTGCT (site CAATCCCCTAG) | 0.539
60 | CAATTCCCATGGACCGGTTTTCCCGGTAATCCGTATTTGCT (site CAATGCCCTAG) | 0
61 | CAATTCCCATGGACCGGTTTTCCCGGTAATCCGTATTTGCT (site CAATTACCTAG) | 0
62 | CAATTCCCATGGACCGGTTTTCCCGGTAATCCGTATTTGCT (site CAATTCACTAG) | 0
63 | CAATTCCCATGGACCGGTTTTCCCGGTAATCCGTATTTGCT (site CAATTCCCTAA) | 0.188
64 | CAATTCCCATGGACCGGTTTTCCCGGTAATCCGTATTTGCT (site CAATTCCCTAC) | 0.184
65 | CAATTCCCATGGACCGGTTTTCCCGGTAATCCGTATTTGCT (site CAATTCCCTAG) | 0.879
66 | CAATTCCCATGGACCGGTTTTCCCGGTAATCCGTATTTGCT (site CAATTCCCTAT) | 1.61
67 | CAATTCCCATGGACCGGTTTTCCCGGTAATCCGTATTTGCT (site CAATTCCCTCG) | 0.178
68 | CAATTCCCATGGACCGGTTTTCCCGGTAATCCGTATTTGCT (site CAATTCCCTGG) | 0
